Measured values from patent publication US7034208B1, “Ahas inhibiting herbicide resistant wheat and method for selection thereof” (BASF Aktiengellschaft, priority 1991, dated 2006).
Where two headings read alike, the source gives them in different places.

Assays:
[1] = tested on: wheat selection FS4 and Fidel; experiment: Field Trial II; type: in vivo; details: for effect on final plant height: resistant selection FS4, postemergent, six weeks after treatment
wheat seeds = experiment: Seed soak screen (Example 1, Step 1, Experiments 1-4); type: in vivo; details: for herbicide concentration necessary for lethality: seed soak; for seedling appearance versus controls: by three to four weeks
Procedure: The seeds are rinsed in sterile distilled water and then soaked in a herbicide concentration for a set period of time, as described below. Sets of twenty-five seeds are placed into 25 ml of the herbicide solution described below in a sterile 100×15 mm plastic petri dish and soaked for the designated time. The seeds are rinsed with water, dried with paper towels and planted (25 seeds/flat) approximately ½″ deep in 6×8 inch peat flats containing a moist, sterile, artificial soil, Metro Mix 350™ (Grace Company, Cambridge, Mass.). The treatments are evaluated at four weeks after treatment. The herbicides, rates and time periods evaluated are described below:
Each treatment is replicated four times.
Each treatment is replicated two times.
The protocol is as described above except that 35 seeds are soaked per petri dish; 25 seeds are still planted per flat. This experiment is repeated twice.

[2] = tested on: wheat seed of the susceptible cultivar Fidel; experiment: Pre-emergence herbicide application, rate finding; type: in vivo; details: visual toxicity after three to four weeks
Procedure: A series of experiments is performed to determine the appropriate herbicide rate for this pre-emergent spray treatment. Wheat seed of the susceptible cultivar Fidel is planted in Metro Mix 350™ in 6×8 inch peat flats at a rate of 100 seeds per flat. The flats are watered prior to herbicide treatment. Three flats are sprayed per treatment. The herbicides are applied with a laboratory belt sprayer at a rate of 950 liters per hectare (L/ha) at a belt speed of 12.8 sec/rev using sprayer nozzle #40015E (Teejet™ Spraying Systems). After three to four weeks, the treatments are evaluated by visual observation for toxicity to the wheat seeds/seedlings.

[3] = tested on: mutant wheat selections FS1-FS4 and Fidel; type: in vivo
Description: This greenhouse test examines the level and spectrum of herbicide resistance of the mutant selections at the whole plant level. […] These lines are bulked according to their parental lines: FS1, FS2, FS3 and FS4. Fidel (wild-type) is used is a control and for performance comparison purposes. Five seeds from each of these lines (including Fidel) are planted per pot in six inch Azalea pots and are later thinned to three plants per pot. Three replicates are used per treatment (chemical and rate) for each line, and six replicates per wheat line are used as untreated controls. Plants are sprayed postemergence, 10 days after planting, with the following herbicides and rates: […]

[4] = tested on: wheat variety Fidel and resistant selections FS2 and FS4; experiment: Preemergence Herbicide Tolerance; type: in vivo; details: pre-emergence application; plant growth after four weeks; versus Fidel
[5] = tested on: wheat selections FS2 and FS4 and Fidel; experiment: Postemergence Herbicide Tolerance, upper limits; type: in vivo; details: four weeks after treatment
Description: In this second greenhouse test, the upper limits of the mutant selections' resistance to postemergent applications of PURSUIT™ and Compound 2 are examined. M4 seed of two of the mutant selections, FS2 and FS4, and seed of Fidel are used in this experiment. Five seeds from each line are planted per pot in sterile Metro Mix 350™ in six inch Azalea pots. Immediately prior to herbicide treatment, these plants are thinned to three plants per pot. Three replicates are used per treatment (chemical & rate) for each line, and six replicates per wheat line are used as untreated controls. The plants are sprayed postemergence, 10 days after planting, with the following herbicides and rates (g/ha):
The herbicides are applied as previously described. Plant height is measured immediately prior to spraying. Plant heights are also measured at two and four weeks after treatment, and shoot fresh weights measured at seven weeks after treatment.

[6] = tested on: mutant wheat selection FS2 and Fidel; experiment: M3-M4 Wheat Herbicide Resistance Spectrum; type: in vivo; details: FS2 versus Fidel; postemergence
Description: In this experiment, the tolerance of imidazolinone-resistant wheat to three sulfonylurea herbicides (BEACON™, CLASSIC™ and OUST™ (BEACON™ is a registered trademark of Ciba-Geigy and is 2-[4,6-bis-(difluoro-methoxy)-pyrimidin-2-ylcarbamoylsulfamoyl]benzoic acid; CLASSIC™ is a registered trademark of E.I. du Pont de Nemours and Company and is the ethyl ester of o-[[(4-chloro-6-methoxy-2-pyrimidinyl)-carbamoyl]-sulfamoyl]-benzoic acid), a sulfamoylurea herbicide (Compound 3), a sulfonylcarboxamide (Compound 1), and an imidazolinone herbicide (Compound 7, which is 3-(4-isopropyl-4-methyl-5-oxo-2-imidazolin-2-yl)-2-methyl-crotonic acid), is examined to look for cross-tolerance to AHAS-inhibiting herbicides other than the imidazolinones. […] Each treatment consists of three replicates. In addition, there are six replicates each of FS2 and Fidel which are used as untreated controls. Plants are sprayed postemergence, 7 days after planting, with the following herbicides and rates:
The herbicides are applied as previously described. Plants are rated at two, three and four weeks after treatment with herbicide.

[7] = tested on: mutant wheat selection FS2 and Fidel; details: FS2 versus Fidel; postemergence
Description: In a second experiment, the mutant wheat selection, FS2, from bulked M3-M4 seed, and Fidel seed are planted in 6″ Azalea pots in sterile Metro Mix 350™. Three seeds are planted per pot initially; these are subsequently thinned to two plants. There are three replicates of each treatment. In addition, the untreated controls consist of 15 replicates each of Fidel and FS2. Plants are sprayed postemergence, 12 days after planting, with the following herbicides and rates: […]

[8] = tested on: AHAS (acetohydroxyacid synthase); experiment: AHAS Enzyme Assay I and II (M4 Plants); type: biochemical, wheat; details: mutant selections; level lower than that for PURSUIT
Procedure: Enzyme Extraction: For the extraction of AHAS, 10 grams of tissue are powdered in liquid nitrogen and then homogenized in 100 mM potassium phosphate buffer (pH 7.5) containing 10 mM pyruvate, 5 mM MgCl2, 5 uM EDTA, 100 uM FAD, 1 mM valine, 1 mM leucine, 10% glycerol, and 10 mM cysteine. The homogenate is filtered through a nylon cloth (53 uM mesh) and centrifuged at 25,000 g for 20 minutes. The supernatant fraction is brought to 50% saturation with respect to (NH4)2SO4 and allowed to stand for 20-30 minutes on ice. It is then centrifuged at 25,000 g for 20 minutes and the supernatant is discarded. The ammonium sulfate pellet is dissolved in 50 mM potassium phosphate buffer (pH 7.5) containing 1 mM EDTA and 100 mM NaCl and used for the assay procedures.
AHAS Assay: AHAS activity is measured by estimation of the product, acetolactate, after conversion by decarboxylation in the presence of acid to acetoin. Standard reaction mixtures contain the enzyme in 50 mM potassium phosphate buffer (pH 7.0) containing 100 mM sodium pyruvate, 10 mM MgCl2, 1 mM thiamine pyrophosphate, and 10 uM FAD. This mixture is incubated at 37° C. for one hour after which time the reaction is stopped with the addition of […] to make a final concentration of 0.85% […] in the tube. The reaction product is allowed to decarboxylate at 60° C. for 15 minutes. The acetoin formed is determined by incubating with creatine (0.17%) and 1-napthol (1.7% in 4N NaOH) by the method of Westerfield (Westerfield, W. W., J. Biol. Chem., 161, 495-502 (1945)). Maximum color is observed by incubation at 60° C. for 15 minutes and then further incubation at room temperature for 15 minutes. The absorption of color complex is measured at 520 nm. Appropriate checks of direct acetoin formation during the enzyme assay are made. Each assay is run at least in duplicate and the experiments are repeated a minimum of two times.
Herbicide Application: Two flats are planted with approximately 100 seeds of each wheat selection (FS1, FS2, and FS4) and Fidel in sterile Metro Mix 350. Ten days later, each flat is sprayed postemergence with 62.5 g/ha of PURSUIT™. The spray delivery rate is 400 L/ha with a belt speed of 8.2 sec/rev using nozzle #65015E. Tween 20™ is used as a surfactant at 0.25% v/v. The plants are harvested three days later and assayed for AHAS activity.
Enzyme Extraction and AHAS Assay: As previously described.
Herbicide Application: As described above (Enzyme Assay I) except that the spray delivery rate is 950 l/ha with a belt speed of 12.8 sec/rev using nozzle #40015E.

[9] = mutant wheat FS1-FS4, postemergence, plant growth four weeks after treatment

**Q.** Which cross resistance ([1]; FS4, after three weeks) does the source give for `COc1cc(OC)nc(NC(=O)NS(=O)(=O)c2ncccc2C(=O)N(C)C)n1` [ACCENT, 1-(4,6-dimethoxypyrimidin-2-yl)-3-(3-dimethylcarbamoyl-2-pyridylsulfonyl)urea] here?
**A.** no cross resistance

**Q.** What about the “tolerance of the resistant wheat” value ([1]; FS4, postemergent 20 and 40 g/ha) of the same compound?
**A.** little or no tolerance

**Q.** What about the grain yield ([1]; both the resistant and susceptible Fidel, yields 10 weeks after treatment) of the same compound?
**A.** little or no grain yield

**Q.** With `CC(C)C1(C)N=C(c2ncccc2C(=O)O)NC1=O` (centres unmarked) [ARSENAL, 2-(4-isopropyl-4-methyl-5-oxo-2-imidazolin-2-yl)-nicotinic acid] as the compound, how does the “effect on seed germination and seedling growth” value (wheat seeds; seed soak 1-500 uM for 48 hours, Experiment 1) read?
**A.** inhibits seed germination and seedling growth with increasing concentration

**Q.** And the seedling growth (wheat seeds; seed soak 100 and 500 uM for 48 hours)?
**A.** totally inhibit seedling growth

**Q.** What about the “herbicide concentration necessary for lethality” value (wheat seeds; exposure greater than 72 hours) of the same compound?
**A.** 50 µM

**Q.** And the “herbicide concentration necessary for lethality” value (wheat seeds; length of exposure less than 72 hours)?
**A.** 75 µM

**Q.** And the “most effective rate, pre-emergent spray” value [2]?
**A.** 40-50 g/ha

**Q.** What about the “rate to which the mutant wheat is resistant” value [3, 9] of the same compound?
**A.** more than 48 g/ha

**Q.** What about the “increased tolerance of FS2 and FS4” value [4] of the same compound?
**A.** approximately 8 fold

**Q.** `Cc1cnc(C2=NC(C)(C(C)C)C(=O)N2)c(C(=O)O)c1` (centres unmarked) [CADRE, 2-(4-isopropyl-4-methyl-5-oxo-2-imidazolin-2-yl)-5-methylnicotinic acid] was tested. Which “effect on final plant height” value [1] did it give?
**A.** no effect

**Q.** Which “inhibitory effect on seed germination or seedling growth” value (wheat seeds; seed soak 500-2000 uM for 48, 72 or 96 hours) does the source give for `CC(=O)NC(C)(C(=O)NS(=O)(=O)c1ccc(Cl)cc1)C(C)C` (centres unmarked) [Compound 1, 2-acetamido-N-[(p-chlorophenyl)sulfonyl]-2,3-dimethyl-butyramide] here?
**A.** does not have an inhibitory effect on either seed germination or seedling growth

**Q.** How did the “rate to which the mutant wheat is resistant” value [3, 9] turn out when `COCc1cnc(C2=NC(C)(C(C)C)C(=O)N2)c(C(=O)O)c1` (centres unmarked) [Compound 2, 2-(4-isopropyl-4-methyl-5-oxo-2-imidazolin-2-yl)-5-(methoxymethyl)-nicotinic acid] was run?
**A.** more than 80 g/ha

**Q.** What about the “increased tolerance of mutant wheat” value ([3]; mutant wheat FS1-FS4 versus Fidel, postemergence, four weeks after treatment) of the same compound?
**A.** ~16 fold

**Q.** And the “rates up to which FS2 and FS4 plant heights equal the untreated controls” value [5]?
**A.** 25-50 g/ha

**Q.** What about the “effect on final plant height” value [1] of the same compound?
**A.** no effect

**Q.** How did the resistance [6] turn out when `C/C(C(=O)O)=C(\C)C1=NC(C)(C(C)C)C(=O)N1` (centres unmarked) [Compound 7, 3-(4-isopropyl-4-methyl-5-oxo-2-imidazolin-2-yl)-2-methyl-crotonic acid] was run?
**A.** greater than 10 fold

**Q.** With `COC(OC)c1cnc(C2=NC(C)(C(C)C)C(=O)N2)c(C(=O)O)c1` (centres unmarked) [Compound 8, 5-formyl-2-(4-isopropyl-4-methyl-5-oxo-2-imidazolin-2-yl)-nicotinic acid, 5-(dimethylacetal)] as the compound, how does the “effect on final plant height” value [1] read?
**A.** no effect

**Q.** Which “increased tolerance of mutant wheat” value ([3]; in vivo) does the source give for `COC(=O)c1ccccc1S(=O)(=O)NC(=O)Nc1nc(C)cc(C)n1` [OUST, methyl ester of o-[[3-(4,6-dimethylpyrimidin-2-yl)ureido]sulfonyl]-benzoic acid] here?
**A.** ~2 fold

**Q.** What about the “rate to which the mutant wheat is resistant” value ([3]; in vivo) of the same compound?
**A.** more than 5 g/ha

**Q.** What about the “increased tolerance of the resistant wheat” value [7] of the same compound?
**A.** 2-4 fold

**Q.** And the “resistance of AHAS activity to inhibition” value [8]?
**A.** Some resistance

**Q.** For `CC(C)C1(C)N=C(c2nc3ccccc3cc2C(=O)O)NC1=O` (centres unmarked) [SCEPTER, 2-(4-isopropyl-4-methyl-5-oxo-2-imidazolin-2-yl)-3-quinolinecarboxylic acid], which “seedling appearance versus controls” value (wheat seeds; seed soak 500 uM for 48 hours) is on record?
**A.** slightly shorter than controls

**Q.** And the “seedling appearance versus controls” value (wheat seeds; seed soak 1-100 uM for 48 hours)?
**A.** indistinguishable from controls

**Q.** And the “prevention of escapes (false positives)” value (wheat seeds; seed soak maximum 1000 uM for 48 hours, Experiment 2)?
**A.** still not high enough to prevent “escapes”

**Q.** What about the “resistance of AHAS activity to inhibition” value [8] of the same compound?
**A.** Some resistance
